Tests used:
lysosomal α-mannosidase [1] = conditions: literature; cited from earlier work
lysosomal α-mannosidase [2] = biological target: T1, lysosomal α-mannosidase (Homo sapiens, UniProt O00754); experiment: inhibition of human liver glycosidases: lysosomal α-mannosidase; format: biochemical
T1 construct: from tissue; host or cells: human liver
T1 sequence (O00754 50-601 limits assumed): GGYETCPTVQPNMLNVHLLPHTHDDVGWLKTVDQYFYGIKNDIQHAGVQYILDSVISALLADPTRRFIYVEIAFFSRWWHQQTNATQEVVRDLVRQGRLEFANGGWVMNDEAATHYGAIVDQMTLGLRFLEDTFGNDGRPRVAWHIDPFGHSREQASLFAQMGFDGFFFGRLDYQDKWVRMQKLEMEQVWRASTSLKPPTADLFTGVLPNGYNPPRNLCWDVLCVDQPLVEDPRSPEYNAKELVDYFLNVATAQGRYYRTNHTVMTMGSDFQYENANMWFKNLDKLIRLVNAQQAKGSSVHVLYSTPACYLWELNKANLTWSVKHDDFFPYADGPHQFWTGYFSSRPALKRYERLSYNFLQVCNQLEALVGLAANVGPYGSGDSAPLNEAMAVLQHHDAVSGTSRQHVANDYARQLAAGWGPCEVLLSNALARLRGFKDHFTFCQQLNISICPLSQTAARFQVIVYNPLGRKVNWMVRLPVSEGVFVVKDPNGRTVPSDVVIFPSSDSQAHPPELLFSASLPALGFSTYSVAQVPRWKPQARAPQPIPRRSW
T1 sequence (O00754 602-882 limits assumed): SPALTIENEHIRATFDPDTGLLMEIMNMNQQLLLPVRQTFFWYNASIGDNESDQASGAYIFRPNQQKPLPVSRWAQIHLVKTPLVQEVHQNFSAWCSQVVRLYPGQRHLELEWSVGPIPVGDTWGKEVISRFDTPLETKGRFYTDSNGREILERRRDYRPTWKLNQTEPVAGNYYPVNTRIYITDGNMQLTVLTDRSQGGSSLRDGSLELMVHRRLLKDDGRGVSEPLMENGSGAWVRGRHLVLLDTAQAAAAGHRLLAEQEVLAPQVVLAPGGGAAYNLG
T1 sequence (O00754 883-1011 limits assumed): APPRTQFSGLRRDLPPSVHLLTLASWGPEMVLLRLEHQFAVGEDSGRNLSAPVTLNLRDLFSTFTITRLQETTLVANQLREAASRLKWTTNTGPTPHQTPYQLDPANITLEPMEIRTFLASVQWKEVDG
Text: (§1) The effects of the ring contracted swainsonines (3) and (4) on the inhibition of 14 human liver glycosidases was studied by the assay methods described in Palamarczyk et al., Arch. Biochem. Biophys. 243, 35 (1985); Daniel et al., Glycoconjugate J. 6, 229 (1989) and Cenci di Bello et al., Biochem. J. 259, 855 (1989). […] Chem. Commun.

[3] = system: processing forms of α-mannosidase; conditions: literature; cited from earlier work
[4] = system: bovine kidney α-fucosidase; experiment: inhibition of bovine kidney α-fucosidase; format: biochemical
glycosidases = experiment: inhibition of glycosidases (general statement); format: biochemical; conditions: compared with swainsonine
bovine β-hexosaminidase = experiment: inhibition of bovine β-hexosaminidase; format: biochemical
β-galactosidase = experiment: inhibition of human liver glycosidases: β-galactosidase; format: biochemical; conditions: 1 mM
Text: as §1

[5] = system: neutral processing mannosidase; experiment: inhibition of human liver glycosidases: neutral processing mannosidase; format: biochemical; conditions: compared with swainsonine
Text: as §1

snail β-mannosidase = experiment: inhibition of snail β-mannosidase; format: biochemical
[6] = biological target: green coffee bean α-galactosidase (Coffea arabica, UniProt Q42656); experiment: inhibition of green coffee bean α-galactosidase; format: biochemical
Chain of green coffee bean α-galactosidase (Q42656 16-378): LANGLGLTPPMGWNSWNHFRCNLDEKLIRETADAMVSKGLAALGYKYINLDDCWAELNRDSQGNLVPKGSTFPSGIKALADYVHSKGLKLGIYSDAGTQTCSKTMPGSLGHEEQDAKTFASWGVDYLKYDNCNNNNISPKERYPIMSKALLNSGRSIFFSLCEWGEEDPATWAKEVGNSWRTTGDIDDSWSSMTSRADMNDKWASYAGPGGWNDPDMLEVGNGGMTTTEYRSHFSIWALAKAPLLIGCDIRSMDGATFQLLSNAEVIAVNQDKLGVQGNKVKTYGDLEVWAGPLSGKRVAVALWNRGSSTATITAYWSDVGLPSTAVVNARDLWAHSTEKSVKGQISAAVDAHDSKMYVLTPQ

α-fucosidase = experiment: inhibition of human liver glycosidases: α-fucosidase; format: biochemical; conditions: 1 mM
Text: as §1

[7] = system: broad specificity β-galactosidase/β-glucosidase; experiment: inhibition of human liver glycosidases: broad specificity β-galactosidase/β-glucosidase; format: biochemical
Text: as §1

[8] = system: Aspergillus niger α-galactosidase; experiment: inhibition of Aspergillus niger α-galactosidase; format: biochemical
yeast α-glucosidase = experiment: inhibition of yeast α-glucosidase; format: biochemical
Jack bean α-mannosidase = biological target: T2, Jack bean α-mannosidase (Canavalia ensiformis, UniProt C0HJB3); experiment: inhibition of Jack bean α-mannosidase; format: biochemical
T2 sequence (C0HJB3 1-981): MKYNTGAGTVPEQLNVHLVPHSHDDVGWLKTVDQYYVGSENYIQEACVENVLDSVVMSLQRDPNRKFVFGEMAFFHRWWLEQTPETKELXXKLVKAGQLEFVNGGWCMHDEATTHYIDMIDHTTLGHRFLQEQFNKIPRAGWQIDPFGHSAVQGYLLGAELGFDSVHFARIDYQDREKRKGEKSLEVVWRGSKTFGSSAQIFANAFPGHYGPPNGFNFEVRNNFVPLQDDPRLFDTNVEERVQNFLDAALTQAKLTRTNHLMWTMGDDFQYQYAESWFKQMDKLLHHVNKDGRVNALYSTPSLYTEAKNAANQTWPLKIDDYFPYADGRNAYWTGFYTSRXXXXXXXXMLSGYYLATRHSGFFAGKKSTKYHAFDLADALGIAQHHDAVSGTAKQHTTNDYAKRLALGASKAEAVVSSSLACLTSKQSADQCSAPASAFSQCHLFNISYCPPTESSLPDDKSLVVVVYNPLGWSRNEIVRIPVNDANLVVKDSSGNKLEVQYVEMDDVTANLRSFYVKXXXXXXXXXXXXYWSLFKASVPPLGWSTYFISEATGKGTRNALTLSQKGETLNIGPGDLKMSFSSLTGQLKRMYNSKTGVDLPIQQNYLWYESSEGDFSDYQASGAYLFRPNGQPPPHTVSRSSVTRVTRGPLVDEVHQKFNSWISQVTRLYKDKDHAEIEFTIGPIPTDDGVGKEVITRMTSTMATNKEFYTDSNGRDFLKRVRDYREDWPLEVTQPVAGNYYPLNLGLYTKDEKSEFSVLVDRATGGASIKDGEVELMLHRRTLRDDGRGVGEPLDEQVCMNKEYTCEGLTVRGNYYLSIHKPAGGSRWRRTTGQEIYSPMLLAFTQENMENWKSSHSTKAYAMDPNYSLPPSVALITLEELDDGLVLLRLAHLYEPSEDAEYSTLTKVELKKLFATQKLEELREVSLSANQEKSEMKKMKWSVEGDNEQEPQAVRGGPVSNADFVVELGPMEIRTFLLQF

almond β-glucosidase = experiment: inhibition of almond β-glucosidase; format: biochemical
bovine β-galactosidase = experiment: inhibition of bovine β-galactosidase; format: biochemical
[9] = system: Golgi II processing mannosidase; experiment: inhibition of human liver glycosidases: Golgi II mannosidase; format: biochemical; conditions: compared with swainsonine
Text: as §1

[10] = system: human liver α-mannosidases; experiment: inhibition of human liver α-mannosidases; format: biochemical
Text: as §1

amyloglucosidase = conditions: literature (Nash et al.); cited from earlier work

For `O[C@H]1[C@H]2[C@H](O)CCCN2C[C@H]1O` [Compound 1, (1S,2R,8R,8aR)-1,2,8-Trihydroxyindolizidine], the “inhibition of lysosomal α-mannosidase” value (lysosomal α-mannosidase [1]) is given as “potent and specific inhibitor”, the Ki (lysosomal α-mannosidase [2]; lysosomal α-mannosidase, comparator) is given as 0.07 µM and the “inhibition of some of the processing forms of α-mannosidase” value [3] is given as “potent and specific inhibitor”.

For `O[C@H]1[C@H]2[C@H](O)CCN2C[C@H]1O` [Compound 3, (1S,2R,7R,7aR)-1,2,7-Trihydroxypyrrolizidine], the “inhibition of bovine kidney α-fucosidase” value [4] was “no significant inhibition”, the glycosidase inhibitory activity (glycosidases) was “weaker such activity than swainsonine” and the “inhibition of bovine β-hexosaminidase” value (bovine β-hexosaminidase) was “no significant inhibition”. The “inhibition of β-galactosidase” value (β-galactosidase) was 69%, the “inhibition of neutral processing mannosidase” value [5] was “less effective” and the “inhibition of snail β-mannosidase” value (snail β-mannosidase) was “no significant inhibition”. The “inhibition of green coffee bean α-galactosidase” value [6] was “no significant inhibition”, the “inhibition of α-fucosidase” value (α-fucosidase) was 33% and the “inhibition of broad specificity β-galactosidase/β-glucosidase” value ([7]; 1 mM) was 25%. For the same molecule, the IC50 (lysosomal α-mannosidase [2]; human liver lysosomal α-mannosidase, read-out: I50) was 1500 µM, the “inhibition of Aspergillus niger α-galactosidase” value [8] was “no significant inhibition” and the “inhibition of yeast α-glucosidase” value (yeast α-glucosidase) was “no significant inhibition”. For the same molecule, the Ki (Jack bean α-mannosidase) was 1700 µM, the “inhibition of almond β-glucosidase” value (almond β-glucosidase) was “no significant inhibition” and the “inhibition of bovine β-galactosidase” value (bovine β-galactosidase) was “no significant inhibition”. For the same molecule, the “inhibition of Golgi II processing mannosidase” value [9] was “less effective”.

For `O[C@H]1[C@H]2[C@@H](O)CCN2C[C@H]1O` [Compound 4, (1S,2R,7S,7aR)-1,2,7-Trihydroxypyrrolizidine], the glycosidase inhibitory activity (glycosidases) was “weaker such activity than swainsonine”, the “inhibition of broad specificity β-galactosidase/β-glucosidase” value ([7]; concentration not given) was 40% and the “inhibition of human liver α-mannosidases” value [10] was “does not inhibit”.

In the case of `OC[C@@H]1[C@@H](O)[C@@H](O)[C@H]2[C@@H](O)CCN21` [Compound 5, 1,7a-diepialexine], the amyloglucosidase inhibition (amyloglucosidase) is listed as “powerful amyloglucosidase inhibitor”.
